Test results taken from patent publication US20210380988A1, “Reducing Prominin2-Mediated Resistance to Ferroptotic Cell Death” (University of Massachusetts, priority 2020, published 2021).

Columns and labels:
[1] = system: HSF1; assay: HSF1 mRNA, protein, S326 phosphorylation and nuclear localization in MCF10A cells; assay type: cell-based; conditions: 10 uM KRIBB11 with 4HNE or RSL3, 60 minutes
[2] = system: SW620; assay: Viability with RSL3 and KRIBB11 co-treatment; assay type: cell-based; conditions: SW620, 10 uM KRIBB11, 24 hours
Protocol: (§1) Cell-based assays: Assays to assess survival in response to matrix detachment were performed as described (Brown C W, 2017). To assay survival in response to GPX4 inhibition, adherent cells in 96 well plates (1.0×10^4 per well) were treated with either DMSO, RSL3, ML210, FIN56 or erastin for 24 hrs with and without ferrostatin-1 or DFO. Subsequently, cells were fixed in 4% paraformaldehyde (Boston BioProducts), stained with crystal violet (Sigma) and read on a microplate reader (Beckman Colter) at absorbance 595. Absorbances were normalized to DMSO.

[3] = system: HCC1806; assay: Viability with RSL3 and KRIBB11 co-treatment; assay type: cell-based; conditions: HCC1806, 10 uM KRIBB11, 24 hours
Protocol: as §1

[4] = system: SW480; assay: Viability with RSL3 and KRIBB11 co-treatment; assay type: cell-based; conditions: SW480, 10 uM KRIBB11, 24 hours
Protocol: as §1

[5] = system: MCF10A cells; assay: Survival of adherent cells in response to GPX4 inhibition (crystal violet); assay type: cell-based
Protocol: as §1

[6] = system: Hs578t cells; assay: as above; assay type: cell-based; conditions: Hs578t
Protocol: as §1

[7] = system: prominin2; assay: PROM2 mRNA (qPCR) and prominin2 protein (immunoblot) expression in MCF10A cells; assay type: cell-based; conditions: MCF10A, 10 uM KRIBB11, 25 uM 4HNE or 5 uM RSL3, 60 minutes
Protocol: Biochemical experiments: Immunoblotting and qPCR were performed as described (Brown C W, 2017). Briefly, for immunoblotting, cell lysates were extracted using radioimmunoprecipitation assay (RIPA) buffer (Boston Bioproducts). Extracts were separated by SDS PAGE using the specified antibodies. Immunoprecipitation was performed on lysates isolated using NP-40 buffer (Boston Bioproducts). Lysates were pre-cleared prior to overnight incubation with the primary antibody and protein A agarose beads (Sigma-Aldrich). Immune complexes were separated by SDS PAGE and immunoblotted as described in figure legends. RNA was isolated from cells (BioBasic) and cDNA was generated using the All in One cDNA Synthesis SuperMix (BioScript Solutions). qPCR was performed using a SYBR green master mix (BioScript Solutions). Sequences for primers used were as follows: […]

[8] = system: cancer cell lines; conditions: across hundreds of cancer cells lines; cited from earlier work
[9] = system: MDA-MB-231 cells; assay: Survival of adherent cells in response to GPX4 inhibition (crystal violet); assay type: cell-based; conditions: MDA-MB-231, prominin2 expression construct vs vector control
Protocol: as §1

## CNc1ccc([N+](=O)[O-])c(Nc2ccc3[nH]ncc3c2)n1 [KRIBB11, N(2)-(1H-indazole-5-yl)-N(6)-methyl-3-nitropyridine-2,6-diamine]
[1]
  expression, phosphorylation and nuclear localization of HSF1: neither the expression, phosphorylation nor nuclear localization of HSF1 was affected
[2]
  ability to resist RSL3-induced ferroptosis when co-treated with RSL3 and KRIBB11: significantly reduced
[3]
  ability to resist RSL3-induced ferroptosis when co-treated with RSL3 and KRIBB11: significantly reduced
[4]
  ability to resist RSL3-induced ferroptosis when co-treated with RSL3 and KRIBB11: significantly reduced
[5]; otherwise resistant cells, cell line not named at b53, FIG. 16E: MCF10A
  death induced by RSL3, FIN56, erastin, or imidazole ketone erastin on chemical inhibition of HSF1: sensitized otherwise resistant cells to death
[6]; 10 uM KRIBB11, 24 hours
  ability to resist RSL3-induced ferroptosis when co-treated with RSL3 and KRIBB11: significantly reduced
[7]
  upregulation of PROM2 mRNA and prominin2 protein expression in response to either 4HNE or RSL3: prevented the upregulation

## Cc1onc(C(=O)N2CCN(C(c3ccc(Cl)cc3)c3ccc(Cl)cc3)CC2)c1[N+](=O)[O-] [ML210]
[8]
  correlation of high prominin2 expression with response to compound: significantly correlated with resistance
[5]; MCF10A, prominin2 siRNA 48 hours, compound 24 hrs
  sensitivity to compound in prominin2 knock-down cells compared to control cells: significant increase in sensitivity
[6]; prominin2 siRNA 48 hours, compound 24 hrs
  sensitivity to compound in prominin2 knock-down cells compared to control cells: significant increase in sensitivity
[9]
  cell death in response to compound with exogenous prominin2 expression: sufficient to inhibit cell death
